Results: patent US20240217967A1, “INDOLINE DERIVATIVES AS DDRS INHIBITORS” (CHIESI FARMACEUTICI S.P.A., priority 2021, published 2024)

Key:
DDR2 [1] = target: T1, DDR2 (Homo sapiens, UniProt Q16832); assay: DDR2 LanthaScreen Europium Kinase Binding assay; details: binding affinity; IC50 converted in Ki using Cheng-Prusoff; read-out: Ki DDR2
T1 sequence (Q16832 22-855): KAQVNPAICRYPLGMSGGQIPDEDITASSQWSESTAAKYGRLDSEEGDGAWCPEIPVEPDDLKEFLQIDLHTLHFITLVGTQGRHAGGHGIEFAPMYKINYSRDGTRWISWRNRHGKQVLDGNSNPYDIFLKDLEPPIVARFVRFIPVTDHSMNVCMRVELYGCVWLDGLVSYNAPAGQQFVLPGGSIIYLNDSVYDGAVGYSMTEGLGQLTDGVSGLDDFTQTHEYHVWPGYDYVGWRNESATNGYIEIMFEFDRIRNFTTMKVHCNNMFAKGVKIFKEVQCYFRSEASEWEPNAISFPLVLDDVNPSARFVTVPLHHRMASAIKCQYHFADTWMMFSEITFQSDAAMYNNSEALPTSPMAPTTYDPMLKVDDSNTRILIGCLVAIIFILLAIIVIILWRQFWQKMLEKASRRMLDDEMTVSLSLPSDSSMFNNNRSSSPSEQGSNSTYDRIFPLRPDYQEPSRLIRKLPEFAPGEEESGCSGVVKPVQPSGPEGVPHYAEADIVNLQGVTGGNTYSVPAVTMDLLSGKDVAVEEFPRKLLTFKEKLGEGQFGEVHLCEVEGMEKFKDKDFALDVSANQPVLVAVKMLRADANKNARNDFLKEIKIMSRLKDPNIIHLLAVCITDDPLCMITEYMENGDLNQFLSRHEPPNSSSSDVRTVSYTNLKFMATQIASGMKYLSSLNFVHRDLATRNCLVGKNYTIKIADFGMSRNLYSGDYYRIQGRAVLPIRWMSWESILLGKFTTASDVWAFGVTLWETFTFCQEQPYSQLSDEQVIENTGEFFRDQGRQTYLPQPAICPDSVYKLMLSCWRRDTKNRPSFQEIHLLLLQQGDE
Summary of the method: (§1)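 Binding by TR-FRET tracer displacement: compounds incubated 1 h at room temperature with 5 nM DDR1 plus 20 nM Kinase Tracer 178, or 5 nM DDR2 plus 10 nM tracer, and 2 nM Eu anti-GST antibody in pH 7.5 HEPES/MgCl2/EGTA/BRIJ35 buffer. 665/615 nm ratio gave four-parameter IC50, converted to Ki via Cheng-Prusoff.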

DDR1 [2] = target: T2, DDR1 (Homo sapiens, UniProt Q08345); assay: DDR1 cell based assay (PathHunter U2OS DDR1, collagen II stimulation); details: U2OS-DDR1 cells, bovine Type II Collagen stimulation
T2 sequence (Q08345 19-913): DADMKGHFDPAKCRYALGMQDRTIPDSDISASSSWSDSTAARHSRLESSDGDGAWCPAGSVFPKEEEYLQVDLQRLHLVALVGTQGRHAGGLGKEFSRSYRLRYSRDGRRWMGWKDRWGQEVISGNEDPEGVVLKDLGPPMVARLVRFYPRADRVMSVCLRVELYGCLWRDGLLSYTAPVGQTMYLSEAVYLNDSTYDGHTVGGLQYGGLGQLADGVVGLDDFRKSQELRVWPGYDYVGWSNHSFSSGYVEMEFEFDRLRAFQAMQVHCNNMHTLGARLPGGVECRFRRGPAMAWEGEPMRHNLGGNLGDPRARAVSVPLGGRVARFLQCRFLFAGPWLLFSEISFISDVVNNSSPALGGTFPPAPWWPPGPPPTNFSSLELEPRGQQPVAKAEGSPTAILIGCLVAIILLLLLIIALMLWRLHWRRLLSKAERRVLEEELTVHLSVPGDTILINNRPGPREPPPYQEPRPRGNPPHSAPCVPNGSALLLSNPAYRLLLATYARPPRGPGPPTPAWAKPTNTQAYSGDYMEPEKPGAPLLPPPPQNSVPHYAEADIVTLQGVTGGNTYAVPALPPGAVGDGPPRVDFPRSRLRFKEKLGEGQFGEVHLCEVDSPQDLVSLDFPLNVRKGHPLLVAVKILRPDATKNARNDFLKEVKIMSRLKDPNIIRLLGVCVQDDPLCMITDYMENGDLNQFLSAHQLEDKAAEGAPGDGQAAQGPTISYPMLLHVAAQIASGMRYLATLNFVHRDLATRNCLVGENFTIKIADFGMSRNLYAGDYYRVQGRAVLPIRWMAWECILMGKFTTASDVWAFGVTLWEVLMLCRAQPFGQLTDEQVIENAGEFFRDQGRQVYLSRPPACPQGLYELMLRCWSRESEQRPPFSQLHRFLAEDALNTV
Summary of the method: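 Receptor activation measured by enzyme-fragment complementation luminescence in engineered U2OS cells. Compound added 30 min before overnight challenge with 20 μg/ml bovine collagen II; data scaled between vehicle and collagen-stimulated controls, IC50 derived by four-parameter variable-slope fitting.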

DDR2 [3] = target: T1, DDR2; assay: DDR2 cell based assay (phospho-ELISA in HEK293T-DDR2 recombinant cells, collagen II stimulation); details: bovine Type II Collagen stimulation
Description: The inhibition of DDR2 phosphorylation by compounds was evaluated in HEK293T-DDR2 recombinant cells by phospho-ELISA assay. Briefly, HEK293T-DDR2 cells were seeded in poly-D-lysine-coated 24-well plates at a density of 250.000 cells/well and incubated for 1.5 hours at 37° C. and 5% CO2 in DMEM+10% FBS. After that, the medium was changed to serum-free DMEM and cells were incubated for 3 hours. Then. test compounds were added at different concentrations 30 minutes before stimulation with bovine Type II Collagen at 50 μg/ml for further 3 hours. For DDR2 phospho-ELISA assay (DuoSet IC Human Phospho-DDR2; R&D Systems), protein extracts were obtained by adding 60 μl/well of lysis buffer prepared according to the manufacturer's instructions. Protein concentration in the samples was determined by BCA assay and the levels of phospho-DDR2 were determined following R&D Systems indications. Raw data were normalized to maximal inhibition control (0% for normalization) and positive control (100% for normalization; cells treated with […] collagen II) and IC50 parameters were calculated in GraphPad Prism 8.0 software, using sigmoidal dose-response curve fitting with variable slope.

DDR1 [4] = target: T2, DDR1; assay: DDR1 LanthaScreen Europium Kinase Binding assay; details: binding affinity; IC50 converted in Ki using Cheng-Prusoff; read-out: Ki DDR1
Summary of the method: as §1

Ki (DDR2 [1]) [nM]	IC50 (DDR1 [2]) [nM]	IC50 (DDR2 [3]) [nM]	Ki (DDR1 [4]) [nM]	SMILES
< 25	< 25	50 to 80	< 25	O=C(Nc1cc(F)cc(C(F)(F)F)c1)c1ccc2c(c1)N(Cc1cnc3ccccn13)CC2 [Example 59, N-(3-fluoro-5-(trifluoromethyl)phenyl)-1-(imidazo[1,2-a]pyridin-3-ylmethyl)indoline-6-carboxamide]
< 25	< 25	< 25	< 25	Cc1cn(-c2cc(NC(=O)c3ccc4c(c3)N(Cc3cnc5cnccn35)CC4C)cc(C(F)(F)F)c2)cn1 (single isomer, unassigned) [Example 27, 1-(imidazo[1,2-a]pyrazin-3-ylmethyl)-3-methyl-N-(3-(4-methyl-1H-imidazol-1-yl)-5-(trifluoromethyl)phenyl)indoline-6-carboxamide]
< 25	< 25	25 to 50	< 25	Cc1cn(-c2cc(C(=O)Nc3ccc4c(c3)N(Cc3cnc5cnccn35)CC4)cc(C(F)(F)F)c2)cn1 [Example 22, N-(1-(imidazo[1,2-a]pyrazin-3-ylmethyl)indolin-6-yl)-3-(4-methyl-1H-imidazol-1-yl)-5-(trifluoromethyl)benzamide]
< 25	< 25	50 to 80	< 25	Cc1cn(-c2cc(NC(=O)c3ccc4c(c3)N(Cc3cnc5cnccn35)CC4)cc(C(F)(F)F)c2)cn1 [Example 3, 1-(imidazo[1,2-a]pyrazin-3-ylmethyl)-N-(3-(4-methyl-1H-imidazol-1-yl)-5-(trifluoromethyl)phenyl)indoline-6-carboxamide]
< 25	< 25	< 25	< 25	O=C(Nc1cccc(C(F)(F)F)c1)c1ccc2c(c1)N(Cc1cnc3[nH]ncc3c1)CC2 [Example 35, 1-((1H-pyrazolo[3,4-b]pyridin-5-yl)methyl)-N-(3-(trifluoromethyl)phenyl)indoline-6-carboxamide]
< 25	< 25	50 to 80	< 25	Cc1cn(-c2cc(NC(=O)c3ccc4c(c3)N(Cc3cnc5ccccn35)CC4)cc(C(F)(F)F)c2)cn1 [Example 1, 1-(imidazo[1,2-a]pyridin-3-ylmethyl)-N-(3-(4-methyl-1H-imidazol-1-yl)-5-(trifluoromethyl)phenyl)indoline-6-carboxamide]
< 25	< 25	50 to 80	< 25	Cc1n[nH]c2ncc(CN3CCc4ccc(C(=O)Nc5ccc(CN6CCN(C)CC6)c(C(F)(F)F)c5)cc43)cc12 [Example 65, 1-((3-methyl-1H-pyrazolo[3,4-b]pyridin-5-yl)methyl)-N-(4-((4-methylpiperazin-1-yl)methyl)-3-(trifluoromethyl)phenyl)indoline-6-carboxamide]
< 25	< 25	25 to 50	< 25	CC1CN(Cc2cnc3[nH]ncc3c2)c2cc(C(=O)Nc3cccc(C(F)(F)F)c3)ccc21 (single isomer, unassigned) [Example 34, 1-((1H-pyrazolo[3,4-b]pyridin-5-yl)methyl)-3-methyl-N-(3-(trifluoromethyl)phenyl)indoline-6-carboxamide]
25 to 50	< 25	25 to 50	< 25	Cc1cn(-c2cc(NC(=O)c3ccc4c(c3)N(C(=O)c3cnc5[nH]ncc5c3)CC4C)cc(C(F)(F)F)c2)cn1 (stereo not shown) [Example 28, 3-methyl-N-(3-(4-methyl-1H-imidazol-1-yl)-5-(trifluoromethyl)phenyl)-1-(1H-pyrazolo[3,4-b]pyridine-5-carbonyl)indoline-6-carboxamide]
< 25	< 25	< 25	< 25	CN1CCN(Cc2ccc(NC(=O)c3ccc4c(c3)N(Cc3cnc5[nH]ncc5c3)CC4)cc2C(F)(F)F)CC1 [Example 75]
< 25	< 25	–	< 25	CN1CCN(Cc2ccc(NC(=O)c3ccc4c(c3)N(Cc3cnc5ccnn5c3)CC4)cc2C(F)(F)F)CC1 [Example 76, N-(4-((4-methylpiperazin-1-yl)methyl)-3-(trifluoromethyl)phenyl)-1-(pyrazolo[1,5-a]pyrimidin-6-ylmethyl)indoline-6-carboxamide]
< 25	25 to 50	–	< 25	CN1CCN(Cc2cc(C(=O)Nc3ccc4c(c3)N(Cc3cnc5cnccn35)CC4)cc(C(F)(F)F)c2)CC1 [Example 18, N-(1-(imidazo[1,2-a]pyrazin-3-ylmethyl)indolin-6-yl)-3-((4-methylpiperazin-1-yl)methyl)-5-(trifluoromethyl)benzamide]
< 25	< 25	–	< 25	CC1CN(Cc2cnc3[nH]ncc3c2)c2cc(C(=O)Nc3cncc(C(F)(F)F)c3)ccc21 (stereo not shown) [Example 91, 1-((1H-pyrazolo[3,4-b]pyridin-5-yl)methyl)-3-methyl-N-(5-(trifluoromethyl)pyridin-3-yl)indoline-6-carboxamide]
< 25	< 25	–	< 25	Cc1n[nH]c2ncc(CN3CCc4ccc(C(=O)Nc5cc(C(C)(C)C)on5)cc43)cc12 [Example 67, N-(5-(tert-butyl)isoxazol-3-yl)-1-((3-methyl-1H-pyrazolo[3,4-b]pyridin-5-yl)methyl)indoline-6-carboxamide]
< 25	50 to 80	–	< 25	CN1CCN(Cc2cc(NC(=O)c3ccc4c(c3)N(Cc3cnc5ccccn35)CC4)cc(C(F)(F)F)c2)CC1 [Example 11, 1-(imidazo[1,2-a]pyridin-3-ylmethyl)-N-(3-((4-methylpiperazin-1-yl)methyl)-5-(trifluoromethyl)phenyl)indoline-6-carboxamide]
25 to 50	50 to 80	–	25 to 50	O=C(Nc1cccc(OC(F)(F)F)c1)c1ccc2c(c1)N(Cc1ccc3[nH]cnc3c1)CC2 [Example 61, 1-((1H-benzo[d]imidazol-5-yl)methyl)-N-(3-(trifluoromethoxy)phenyl)indoline-6-carboxamide]
25 to 50	50 to 80	–	< 25	CC1CN(Cc2cnc3ccccn23)c2cc(C(=O)Nc3cccc(C(F)(F)F)c3)ccc21 (stereo not shown) [Example 33, 1-(imidazo[1,2-a]pyridin-3-ylmethyl)-3-methyl-N-(3-(trifluoromethyl)phenyl)indoline-6-carboxamide]
< 25	50 to 80	–	< 25	O=C(Nc1cccc(C(F)(F)F)c1)c1ccc2c(c1)N(Cc1cnc3ccnn3c1)CC2 [Example 63, 1-(pyrazolo[1,5-a]pyrimidin-6-ylmethyl)-N-(3-(trifluoromethyl)phenyl)indoline-6-carboxamide]
25 to 50	< 25	–	< 25	CN1CCN(Cc2ccc(NC(=O)c3ccc4c(c3)N(Cc3cnc5c(c3)CCN5)CC4)cc2C(F)(F)F)CC1 [Example 77, 1-((2,3-dihydro-1H-pyrrolo[2,3-b]pyridin-5-yl)methyl)-N-(4-((4-methylpiperazin-1-yl)methyl)-3-(trifluoromethyl)phenyl)indoline-6-carboxamide]
